Experimental data published in PubChem BioAssay AID248 (DTP/NCI, 2004).
“And” between values parts separate entries of the source, which are not always exact repeats. Equal entries are not always repeated. Toxic doses and inconclusive results are not listed. Cut-off read from the data, not from the text of the source: active = T/C of 150% or more; inactive = T/C below 125%.

Test system: L1210 leukemia ip in BDF1 mice, survival T/C
Assay: NCI In Vivo Anticancer Drug Screen. Data for tumor model L1210 Leukemia (intraperitoneal) in B6D2F1 (BDF1) mice
Settings: endpoint: mean survival time, higher = longer survival
Summary of the method: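 Tumor was transplanted into mice, which were then dosed with test compound or vehicle alone. Survival was recorded for each group, and the treated figure was expressed relative to the control figure.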

[1] = dose: 50.0 mg/kg/injection, schedule: Q01DX001 (ip), vehicle: carboxymethylcellulose (CMC)
[2] = dose: 100.0 mg/kg/injection, schedule: Q01DX001 (ip), vehicle: carboxymethylcellulose (CMC)
[3] = dose: 100.0 mg/kg/injection, schedule: Q01DX001 (ip), vehicle: saline
[4] = dose: 200.0 mg/kg/injection, schedule: Q01DX001 (ip), vehicle: carboxymethylcellulose (CMC)
[5] = dose: 400.0 mg/kg/injection, schedule: Q01DX001 (ip), vehicle: carboxymethylcellulose (CMC)
[6] = dose: 400.0 mg/kg/injection, schedule: Q01DX001 (ip), vehicle: saline
[7] = dose: 75.0 mg/kg/injection, schedule: Q01DX001 (ip), vehicle: saline
[8] = dose: 150.0 mg/kg/injection, schedule: Q01DX001 (ip), vehicle: saline
[9] = dose: 300.0 mg/kg/injection, schedule: Q01DX001 (ip), vehicle: saline
[10] = dose: 200.0 mg/kg/injection, schedule: Q01DX001 (ip), vehicle: saline
[11] = dose: 100.0 mg/kg/injection, schedule: Q04DX003 (ip), vehicle: saline with Tween-80
[12] = dose: 200.0 mg/kg/injection, schedule: Q04DX003 (ip), vehicle: saline with Tween-80
[13] = dose: 400.0 mg/kg/injection, schedule: Q04DX003 (ip), vehicle: saline with Tween-80
[14] = dose: 50.0 mg/kg/injection, schedule: Q01DX009 (ip), vehicle: saline with Tween-80
[15] = dose: 100.0 mg/kg/injection, schedule: Q01DX009 (ip), vehicle: saline with Tween-80
[16] = dose: 200.0 mg/kg/injection, schedule: Q01DX009 (ip), vehicle: saline with Tween-80
[17] = dose: 50.0 mg/kg/injection, schedule: Q01DX001 (ip), vehicle: saline
[18] = dose: 100.0 mg/kg/injection, schedule: Q04DX002 (ip), vehicle: Klucel (hydroxypropylcellulose) (HPC)

Measured: T/C

O=C(OC1COC(OC(=O)c2ccccc2)C(OC(=O)c2ccccc2)C1OC(=O)c1ccccc1)c1ccccc1 (stereo not drawn)
inactive: [1] 96 % of control | dose: 100.0 mg/kg/injection, schedule: Q01DX001 (ip), vehicle: Klucel (hydroxypropylcellulose) (HPC) 102 % of control | dose: 100.0 mg/kg/injection, schedule: Q01DX001 (ip), vehicle: acetone 92 % of control | [2] 102 % of control and 103 % of control | [3] 90 % of control | dose: 200.0 mg/kg/injection, schedule: Q01DX001 (ip), vehicle: Klucel (hydroxypropylcellulose) (HPC) 102 % of control | dose: 200.0 mg/kg/injection, schedule: Q01DX001 (ip), vehicle: acetone 88 % of control | [4] 94 % of control and 91 % of control | dose: 400.0 mg/kg/injection, schedule: Q01DX001 (ip), vehicle: Klucel (hydroxypropylcellulose) (HPC) 109 % of control | dose: 400.0 mg/kg/injection, schedule: Q01DX001 (ip), vehicle: acetone 90 % of control | [5] 94 % of control | [6] 95 % of control

NC(=O)/C=C/C(=O)O (tested in a mixture with another compound)
inactive: dose: 31.25 mg/kg/injection, schedule: Q#A X Z (ip), vehicle: saline 118 % of control | dose: 62.5 mg/kg/injection, schedule: Q#A X Z (ip), vehicle: saline 119 % of control | dose: 125.0 mg/kg/injection, schedule: Q#A X Z (ip), vehicle: saline 100 % of control | dose: 125.0 mg/kg/injection, schedule: Q#A X Z (oral), vehicle: saline 102 % of control | dose: 250.0 mg/kg/injection, schedule: Q#A X Z (oral), vehicle: saline 100 % of control | dose: 500.0 mg/kg/injection, schedule: Q#A X Z (oral), vehicle: saline 102 % of control | dose: 1000.0 mg/kg/injection, schedule: Q#A X Z (oral), vehicle: saline 102 % of control

COc1ccc2c3c1OC1C(OS(=O)(=O)c4ccc(C)cc4)C=CC4C(C2)N(C)CCC341 (stereo not drawn)
inactive: dose: 75.0 mg/kg/injection, schedule: Q01DX001 (ip), vehicle: carboxymethylcellulose (CMC) 100 % of control | [7] 101 % of control | dose: 150.0 mg/kg/injection, schedule: Q01DX001 (ip), vehicle: carboxymethylcellulose (CMC) 97 % of control | [8] 103 % of control | dose: 300.0 mg/kg/injection, schedule: Q01DX001 (ip), vehicle: carboxymethylcellulose (CMC) 95 % of control | [9] 104 % of control

O=NN(CCCl)C(=O)Nc1ccc(-c2ccc(NC(=O)N(CCCl)N=O)cc2)cc1
inactive: dose: 8.0 mg/kg/injection, schedule: Q01DX001 (ip), vehicle: carboxymethylcellulose (CMC) 116 % of control | dose: 16.0 mg/kg/injection, schedule: Q01DX001 (ip), vehicle: carboxymethylcellulose (CMC) 118 % of control
active: dose: 250.0 mg/kg/injection, schedule: Q01DX001 (ip), vehicle: carboxymethylcellulose (CMC) 161 % of control | dose: 375.0 mg/kg/injection, schedule: Q01DX001 (ip), vehicle: carboxymethylcellulose (CMC) 163 % of control | dose: 500.0 mg/kg/injection, schedule: Q01DX001 (ip), vehicle: carboxymethylcellulose (CMC) 190 % of control | dose: 750.0 mg/kg/injection, schedule: Q01DX001 (ip), vehicle: carboxymethylcellulose (CMC) 229 % of control | dose: 1000.0 mg/kg/injection, schedule: Q01DX001 (ip), vehicle: carboxymethylcellulose (CMC) 229 % of control | dose: 1500.0 mg/kg/injection, schedule: Q01DX001 (ip), vehicle: carboxymethylcellulose (CMC) 232 % of control | dose: 2000.0 mg/kg/injection, schedule: Q01DX001 (ip), vehicle: carboxymethylcellulose (CMC) 168 % of control | dose: 2500.0 mg/kg/injection, schedule: Q01DX001 (ip), vehicle: carboxymethylcellulose (CMC) 223 % of control

CCCCCCCCCCCCNC(=O)C[n+]1cccc(C(=O)N(C)C)c1
inactive: dose: 5.0 mg/kg/injection, schedule: Q04DX003 (ip), vehicle: saline 93 % of control | dose: 10.0 mg/kg/injection, schedule: Q04DX003 (ip), vehicle: saline 96 % of control | dose: 20.0 mg/kg/injection, schedule: Q04DX003 (ip), vehicle: saline 93 % of control

CS(=O)(=O)Oc1c(Cl)cc(Cl)cc1Sc1cc(Cl)cc(Cl)c1OS(C)(=O)=O
inactive: [2] 95 % of control | [4] 104 % of control | [5] 101 % of control

O=S(=O)(CCCCCCl)Cc1ccccc1
inactive: [3] 93 % of control | [10] 93 % of control | [6] 96 % of control

CCCCNC(=O)NC(=O)CS(=O)(=O)c1ccc(C)cc1
inactive: [11] 95 % of control | [12] 95 % of control | [13] 93 % of control

CNCCOc1ccccc1
inactive: [14] 105 % of control | [15] 101 % of control | [11] 107 % of control | [12] 93 % of control

CCN1C(/C=C/c2ccc(O)c3ncccc23)CCC2CC(C)CCC21 (stereo not drawn)
inactive: [7] 117 % of control | [8] 119 % of control | [9] 120 % of control

CCCCN(Cc1ccccc1)C(=S)Nc1ccccc1
inactive: dose: 100.0 mg/kg/injection, schedule: Q01DX009 (ip), vehicle: Klucel (hydroxypropylcellulose) (HPC) 106 % of control | dose: 200.0 mg/kg/injection, schedule: Q01DX009 (ip), vehicle: Klucel (hydroxypropylcellulose) (HPC) 108 % of control | dose: 400.0 mg/kg/injection, schedule: Q01DX009 (ip), vehicle: Klucel (hydroxypropylcellulose) (HPC) 108 % of control

CC(=O)c1cccc(NC(=O)Oc2ccc(-c3ccccc3)cc2)c1
inactive: dose: 100.0 mg/kg/injection, schedule: Q01DX001 (ip), vehicle: saline with Tween-80 98 % of control | [15] 100 % of control and 90 % of control | dose: 100.0 mg/kg/injection, schedule: Q04DX002 (ip), vehicle: saline with Tween-80 96 % of control and 98 % of control | [11] 90 % of control | dose: 200.0 mg/kg/injection, schedule: Q01DX001 (ip), vehicle: saline with Tween-80 90 % of control | [16] 95 % of control | dose: 200.0 mg/kg/injection, schedule: Q04DX002 (ip), vehicle: saline with Tween-80 93 % of control and 98 % of control | [12] 92 % of control | dose: 400.0 mg/kg/injection, schedule: Q01DX009 (ip), vehicle: saline with Tween-80 90 % of control | dose: 400.0 mg/kg/injection, schedule: Q04DX002 (ip), vehicle: saline with Tween-80 91 % of control | [13] 93 % of control

Cc1ccc(S(=O)(=O)NCCC(=O)O)cc1
inactive: [3] 93 % of control | [10] 98 % of control | [6] 98 % of control

C=CCP(C)(=O)CC=C
inactive: dose: 100.0 mg/kg/injection, schedule: Q04DX002 (ip), vehicle: saline 102 % of control | dose: 200.0 mg/kg/injection, schedule: Q04DX002 (ip), vehicle: saline 108 % of control | dose: 400.0 mg/kg/injection, schedule: Q04DX002 (ip), vehicle: saline 94 % of control

CCOC(=O)/C(C)=N\Nc1ccc([N+](=O)[O-])cc1
inactive: [1] 92 % of control | [2] 90 % of control | [4] 92 % of control | [5] 103 % of control

Nc1ncc([N+](=O)[O-])s1
inactive: dose: 25.0 mg/kg/injection, schedule: Q04DX002 (ip), vehicle: Klucel (hydroxypropylcellulose) (HPC) 95 % of control | [17] 98 % of control | dose: 50.0 mg/kg/injection, schedule: Q04DX002 (ip), vehicle: Klucel (hydroxypropylcellulose) (HPC) 98 % of control | [3] 98 % of control | [18] 115 % of control | [10] 98 % of control

Cc1nnc(NS(=O)(=O)c2ccc(N=Nc3ccc(O)c4ncccc34)cc2)s1
inactive: [3] 105 % of control | [10] 102 % of control | [6] 96 % of control

CCOC(=O)/C=C(\C)CO (tested in a mixture with another compound)
inactive: [14] 93 % of control | [15] 93 % of control | [16] 101 % of control

O=C(NC1CCCCC1)C(=O)NC1CCCCC1
inactive: [17] 102 % of control | [3] 98 % of control | [18] 89 % of control | [10] 98 % of control | dose: 200.0 mg/kg/injection, schedule: Q04DX002 (ip), vehicle: Klucel (hydroxypropylcellulose) (HPC) 95 % of control | [6] 96 % of control | dose: 400.0 mg/kg/injection, schedule: Q04DX002 (ip), vehicle: Klucel (hydroxypropylcellulose) (HPC) 103 % of control

NC(CO)C(=O)O (stereo not drawn)
inactive: [2] 95 % of control | [3] 91 % of control and 104 % of control | [4] 101 % of control | [10] 92 % of control and 101 % of control | [5] 103 % of control | [6] 105 % of control and 95 % of control
